The source of these data is publication PMC3615439 (Medicinal chemistry, 2011).

One series addresses σ1 receptors (Cavia porcellus, UniProt Q60492). The series can be described thus: σ1 receptor binding, competition against [3H]. Further details: species or system guinea pig. Conditions: for fold lower σ1 receptor affinity than positional isomers: 2-substituted ligand versus its 3- and/or 4-substituted isomers; for Hill Slope: guinea pig brain membranes, mean ± SEM.
The nature of series [1]: Lipophilicity by reverse-phase HPLC. It counts as physicochemical. Particulars: aqueous phase pH 7.5, text calls it log k′w.

Structures are written as SMILES.

Chain of σ1 receptors (Q60492 whole entry): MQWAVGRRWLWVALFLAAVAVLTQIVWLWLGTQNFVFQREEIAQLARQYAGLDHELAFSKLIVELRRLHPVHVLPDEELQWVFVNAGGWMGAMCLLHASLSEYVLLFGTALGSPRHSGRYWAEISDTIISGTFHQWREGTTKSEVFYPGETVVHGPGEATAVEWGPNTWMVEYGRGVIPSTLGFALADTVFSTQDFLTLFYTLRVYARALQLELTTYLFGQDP

With `Fc1ccccc1CCNCCNCCc1ccc(Cl)c(Cl)c1` [Compound 4, N-[2-(3,4-Dichlorophenyl)-ethyl]-N′-[2-(2-fluorophenyl)-ethyl]-ethane-1,2-diamine], at σ1 receptors, the 50% inhibitory concentration (IC50) came out at 17.5 ± 0.31 nM, the inhibition constant Ki stood at 12.1 ± 0.22 nM, the “fold lower σ1 receptor affinity than positional isomers” value is listed as 1.5 fold and the “Hill Slope” value is reported as −1.07 ± 0.01.

For the molecule `Fc1cccc(CCNCCNCCc2ccc(Cl)c(Cl)c2)c1` [Compound 5, N-[2-(3,4-Dichlorophenyl)-ethyl]-N′-[2-(3-fluorophenyl)-ethyl]-ethane-1,2-diamine], at σ1 receptors, the IC50 stood at 11.2 ± 1.29 nM, the Ki came out at 7.74 ± 0.89 nM and the “Hill Slope” value was −1.13 ± 0.09. In addition, the “k′w” value in series [1] stood at 2.54.

For the molecule `Fc1ccc(CCNCCNCCc2ccc(Cl)c(Cl)c2)cc1` [Compound 6, N-[2-(3,4-Dichlorophenyl)-ethyl]-N′-[2-(4-fluorophenyl)-ethyl]-ethane-1,2-diamine], on σ1 receptors, the IC50 amounted to 11.3 ± 2.02 nM, the inhibitory constant (Ki) turned out to be 7.83 ± 1.39 nM and the “Hill Slope” value was −1.21 ± 0.05. Besides, the “k′w” value in series [1] turned out to be 2.54 ± 0.05.

Take `Clc1ccc(CCNCCNCCc2ccccc2Br)cc1Cl` [Compound 7, N-[2-(2-Bromophenyl)-ethyl]-N′-[2-(3,4-dichlorophenyl)-ethyl]-ethane-1,2-diamine]: at σ1 receptors, the IC50 is 26.6 ± 3.95 nM, the inhibition constant Ki was 18.4 ± 2.73 nM, the “fold lower σ1 receptor affinity than positional isomers” value amounted to 2.7 fold and the “Hill Slope” value was −0.78 ± 0.03. Further, the “k′w” value in series [1] is on record as 3.09 ± 0.05.

As to `Clc1ccc(CCNCCNCCc2cccc(Br)c2)cc1Cl` [Compound 8, N-[2-(3-Bromophenyl)-ethyl]-N′-[2-(3,4-dichlorophenyl)-ethyl]-ethane-1,2-diamine], at σ1 receptors, the IC50 was determined as 9.14 ± 0.85 nM, the Ki stood at 6.35 ± 0.59 nM and the “Hill Slope” value was −1.02 ± 0.15. Also, the “k′w” value in series [1] is listed as 3.06 ± 0.07.

For `Clc1ccc(CCNCCNCCc2ccc(Br)cc2)cc1Cl` [Compound 9, N-[2-(4-Bromophenyl)-ethyl]-N′-[2-(3,4-dichlorophenyl)-ethyl]-ethane-1,2-diamine], on σ1 receptors, the half-inhibitory concentration (IC50) amounted to 9.85 ± 3.92 nM; the affinity, expressed as Ki, was 6.8 ± 2.71 nM; the “Hill Slope” value was −1.00 ± 0.02. Moreover, the “k′w” value in series [1] came out at 3.31 ± 0.08.

With `Clc1ccc(CCNCCNCCc2ccccc2I)cc1Cl` [Compound 10, N-[2-(3,4-Dichlorophenyl)-ethyl]-N′-[2-(2-iodophenyl)-ethyl]-ethane-1,2-diamine], at σ1 receptors, the half-inhibitory concentration (IC50) is 62.5 ± 0.96 nM, the Ki worked out at 43.2 ± 0.66 nM, the “fold lower σ1 receptor affinity than positional isomers” value came to 2.7 fold and the “Hill Slope” value was −1.12 ± 0.03.

As for `Clc1ccc(CCNCCNCCc2ccc(I)cc2)cc1Cl` [Compound 11, N-[2-(3,4-Dichlorophenyl)-ethyl]-N′-[2-(4-iodophenyl)-ethyl]-ethane-1,2-diamine], on σ1 receptors, the IC50 came to 22.9 ± 0.94 nM, the Ki was determined as 15.8 ± 0.65 nM and the “Hill Slope” value is −1.59 ± 0.08. Further, on σ1 receptors (4-iodo versus 4-fluoro or 4-bromo derivative), the “fold poorer Ki value than compounds 6 or 9” value is given as 2 fold. The “k′w” value in series [1] is on record as 3.71 ± 0.05.
